Measurements from patent publication US9394268B2, “(E)-1-(5-methoxy-2,2-dimethyl-2H-chromen-8-yl)-3-(4-methoxyphenyl)prop-2-en-1-one and analogs thereof, as well as preparation method and use thereof” (Sichuan University, priority 2012, dated 2016).

How the values were obtained:
Format in all cases: cell-based
HCT116 = test: Cell proliferative assay (MTT), HCT116; details: Homo sapiens, HCT-116, 72 h incubation, read-out: IC50s HCT116
Protocol: (§1) The synthesized compounds were evaluated for their cytotoxin activity against suspended tumor cells. These cells were seeded on 96-well plates and incubated for 24 h. Selected compounds were added at various doses and incubated for 72 h, MTT was then added, and the absorbance was measured at a wavelength of 590 nm. IC50 values are expressed as the mean±SEM from the dose-response curves of at least three independent experiments.

SW620 = test: Cell proliferative assay (MTT), SW620; details: Homo sapiens, SW-620, 72 h incubation, read-out: IC50s SW620
Protocol: as §1

HT29 = test: Cell proliferative assay (MTT), HT29; details: Homo sapiens, HT-29, 72 h incubation, read-out: IC50s HT29
Protocol: as §1

HepG2 = test: Cell proliferative assay (MTT), HepG2; details: Homo sapiens, 72 h incubation, read-out: IC50s HepG2
Protocol: as §1

K562 = test: Cell proliferative assay (MTT), K562; details: Homo sapiens, 72 h incubation, read-out: IC50s K562
Protocol: as §1

A549 = test: Cell proliferative assay (MTT), A549; details: Homo sapiens, 72 h incubation, read-out: IC50s A549
Protocol: as §1

SMMC-7221 = test: Cell proliferative assay (MTT), SMMC-7221; details: 72 h incubation, read-out: IC50s SMMC-7221
Protocol: as §1

LO2 = test: Cell proliferative assay (MTT), LO2; details: Homo sapiens, L02, 72 h incubation, read-out: IC50s LO2
Protocol: as §1

A375 = test: Cell proliferative assay (MTT), A375; details: Homo sapiens, A-375, 72 h incubation, read-out: IC50s A375
Protocol: as §1

Row | SMILES | IC50 (HCT116) | IC50 (SW620) | IC50 (HT29) | IC50 (HepG2) | IC50 (K562) | IC50 (A549) | IC50 (SMMC-7221) | IC50 (LO2) | IC50 (A375)
1 | COc1ccc(C(=O)/C=C/c2cccc(F)c2)c2c1C=CC(C)(C)O2 [SKLBC-7, (E)-3-(3-fluorophenyl)-1-(5-methoxy-2,2-dimethyl-2H-chromen-8-yl)prop-2-en-1-one] | 1.92 µM | > 10 µM | > 10 µM | > 10 µM | > 10 µM | – | – | – | –
2 | COc1ccc(C(=O)/C=C/c2cccc3ccccc23)c2c1C=CC(C)(C)O2 [SKLBC-32, (E)-1-(5-methoxy-2,2-dimethyl-2H-chromen-8-yl)-3-(naphthalen-1-yl)prop-2-en-1-one] | > 10 µM | > 10 µM | > 10 µM | > 10 µM | > 10 µM | – | – | – | –
3 | COc1ccc(C(=O)/C=C/c2ccc(-n3ccnc3)cc2)c2c1C=CC(C)(C)O2 [SKLBC-15, (E)-3-(4-(1H-imidazol-1-yl)phenyl)-1-(5-methoxy-2,2-dimethyl-2H-chromen-8-yl)prop-2-en-1-one] | 8.05 µM | > 10 µM | 6.6 µM | > 10 µM | > 10 µM | – | – | – | –
4 | CCN(CC)c1cc(/C=C/C(=O)c2ccc(OC)c3c2OC(C)(C)C=C3)ccc1OC [SKLBC-86, (E)-3-(3-(diethylamino)-4-methoxyphenyl)-1-(5-methoxy-2,2-dimethyl-2H-chromen-8-yl)prop-2-en-1-one] | – | – | – | > 10 µM | > 10 µM | > 10 µM | > 10 µM | > 20 µM | > 10 µM
5 | COc1ccc(/C=C/C(=O)c2ccc(OC)c3c2OC(C)(C)C=C3)cc1NO [SKLBC-84, (E)-3-(3-(hydroxyamino)-4-methoxyphenyl)-1-(5-methoxy-2,2-dimethyl-2H-chromen-8-yl)prop-2-en-1-one] | – | – | – | > 10 µM | > 10 µM | > 10 µM | > 10 µM | > 20 µM | > 10 µM
6 | COc1ccc(/C=C/C(=O)c2ccc(OC)c3c2OC(C)(C)C=C3)cc1OCCCN(C)C [SKLBC-61, (E)-3-(3-(3-(dimethylamino)propoxy)-4-methoxyphenyl)-1-(5-methoxy-2,2-dimethyl-2H-chromen-8-yl)prop-2-en-1-one] | – | – | – | 0.44 µM | 0.58 µM | 0.44 µM | 1.15 µM | > 10 µM | 1.05 µM
7 | COc1ccc(/C=C/C(=O)c2ccc(OC)c3c2OC(C)(C)C=C3)cc1OCCN1CCCC1 [SKLBC-59, (E)-1-(5-methoxy-2,2-dimethyl-2H-chromen-8-yl)-3-(4-methoxy-3-(2-(pyrrolidin-1-yl)ethoxy)phenyl)prop-2-en-1-one] | – | – | – | > 10 µM | > 10 µM | > 10 µM | > 10 µM | > 20 µM | > 10 µM
8 | COc1ccc(/C=C/C(=O)c2ccc(OC)c3c2OC(C)(C)C=C3)cc1N(Cc1ccccc1)Cc1ccccc1 [SKLBC-91, (E)-3-(3-(dibenzylamino)-4-methoxyphenyl)-1-(5-methoxy-2,2-dimethyl-2H-chromen-8-yl)prop-2-en-1-one] | – | – | – | > 10 µM | 0.57 µM | > 10 µM | > 10 µM | > 10 µM | > 10 µM
9 | COc1ccc(/C=C/C(=O)c2ccc(OC)c3c2OC(C)(C)C=C3)cc1OS(=O)(=O)Cc1ccccc1 [SKLBC-70, (E)-2-methoxy-5-(3-(5-methoxy-2,2-dimethyl-2H-chromen-8-yl)-3-oxoprop-1-en-1-yl)phenyl phenylmethanesulfonate] | – | – | – | > 10 µM | > 10 µM | > 10 µM | > 10 µM | > 10 µM | > 10 µM
10 | COc1ccc(/C=C/C(=O)c2ccc(OC)c3c2OC(C)(C)C=C3)cc1OC(=O)c1ccco1 [SKLBC-68, (E)-2-methoxy-5-(3-(5-methoxy-2,2-dimethyl-2H-chromen-8-yl)-3-oxoprop-1-en-1-yl)phenyl furan-2-carboxylate] | – | – | – | 0.068 µM | 0.245 µM | 0.8 µM | 1.62 µM | > 10 µM | 0.68 µM
